Read-outs that look alike come from different tables or passages of the source.
How the values were obtained:
hmGlu1 = test system: hmGlu1; set-up: method as in PMID 30116027, PMID 34731619, PMID 35643819, PMID 25137254, PMID 11606768; details: Figure 1; read-out: hmGlu1 PAM EC50; cited from earlier work
mGlu4 = test system: mGlu4; set-up: method as in PMID 30116027, PMID 34731619, PMID 35643819, PMID 25137254, PMID 11606768; details: Figure 1; cited from earlier work
Sprague–Dawley rats = assay: catalepsy (latency to withdraw); type: in vivo; details: rat, positive control, 1.5 mg/kg i.p.
Protocol: In order to enable our target validation work, we first profiled PAM 19d in a rat locomotor battery to ensure that pharmacodynamic efficacy was not mistaken for gross effects on locomotion.[20] […] PK was performed in parallel to establish a PK/PD relationship.[24]
Control rats were injected with 1.5 mg/kg of haloperidol i.p. (dissolved in 8% lactic acid and taken to volume of 50 mL with sterile water) and were returned to their home cage for 90 min. Cataleptic behavior is determined by placing the forelimbs on a bar raised 6 cm above the table and recording the amount of time it takes for the rat to withdraw the forelimbs with a cutoff of 60 s. Data are expressed as mean latency to withdraw + SEM or percent inhibition of catalepsy + SEM.

dog mGlu1 = dog mGlu1 (Canis lupus familiaris, UniProt A0A8I3NTE8); assay: mGlu1 PAM assay, dog receptor; type: cell-based
dog mGlu1, sequence (A0A8I3NTE8 30-1195): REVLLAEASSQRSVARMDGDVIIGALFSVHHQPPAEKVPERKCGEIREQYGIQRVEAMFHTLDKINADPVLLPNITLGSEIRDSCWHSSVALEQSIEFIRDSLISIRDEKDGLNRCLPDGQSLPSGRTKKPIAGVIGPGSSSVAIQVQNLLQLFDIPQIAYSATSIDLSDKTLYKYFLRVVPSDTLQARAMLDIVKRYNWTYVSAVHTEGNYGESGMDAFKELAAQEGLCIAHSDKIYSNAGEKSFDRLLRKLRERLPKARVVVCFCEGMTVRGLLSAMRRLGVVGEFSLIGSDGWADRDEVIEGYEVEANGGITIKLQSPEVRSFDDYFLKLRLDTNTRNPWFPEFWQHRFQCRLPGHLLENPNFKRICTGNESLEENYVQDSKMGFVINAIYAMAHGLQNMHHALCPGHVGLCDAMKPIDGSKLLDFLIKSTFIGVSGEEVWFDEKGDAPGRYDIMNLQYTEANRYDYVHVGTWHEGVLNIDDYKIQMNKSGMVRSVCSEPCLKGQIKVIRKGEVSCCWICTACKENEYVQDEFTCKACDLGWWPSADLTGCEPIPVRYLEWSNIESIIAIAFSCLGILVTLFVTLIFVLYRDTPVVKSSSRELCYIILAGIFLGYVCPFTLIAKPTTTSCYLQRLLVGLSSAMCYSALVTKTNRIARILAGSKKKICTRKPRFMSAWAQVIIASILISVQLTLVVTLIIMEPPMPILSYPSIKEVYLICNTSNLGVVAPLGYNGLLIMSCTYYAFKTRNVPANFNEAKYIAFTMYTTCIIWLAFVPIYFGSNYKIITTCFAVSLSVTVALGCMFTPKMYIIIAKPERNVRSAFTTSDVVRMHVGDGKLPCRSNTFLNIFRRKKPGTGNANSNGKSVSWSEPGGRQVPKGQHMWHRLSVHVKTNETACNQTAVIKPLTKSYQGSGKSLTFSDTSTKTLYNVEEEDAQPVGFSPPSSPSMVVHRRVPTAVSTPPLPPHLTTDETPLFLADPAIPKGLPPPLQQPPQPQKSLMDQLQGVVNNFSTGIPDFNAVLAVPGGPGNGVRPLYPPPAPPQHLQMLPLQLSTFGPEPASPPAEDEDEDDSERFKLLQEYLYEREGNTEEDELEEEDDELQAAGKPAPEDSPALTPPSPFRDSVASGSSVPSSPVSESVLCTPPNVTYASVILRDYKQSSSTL

IV dog PK = type: in vivo; details: male, beagle, plasma, 0.5 mg/kg IV; for C0: iv, 0.5 mg/kg
Protocol: (§1) Deeper profiling began with IV dog PK (0.5 mg/kg, n = 3 male beagles). […] Was this a mechanism-based toxicity in dog? Could there be dog-specific pharmacology of mGlu1 activation? Were these AEs derived from the 19d chemotype? Could a mGlu1/mGlu5 heterodimer be responsible for the observed AEs? […] In an attempt to address the chemotype question, we evaluated PAM 4 (VU6004909),[8] an early generation rodent in vivo tool compound, for the first time in dog PK. […] of the study with 19d, PAM 4 produced no AEs in dog. […] Therefore, more molecular pharmacology and PK studies as well as additional chemically distinct mGlu1 PAM chemotypes are required to understand the AEs elicited by an mGlu1 PAM in dogs, an otherwise very promising target for the treatment of schizophrenia.

male beagles = assay: adverse events in dog PK; type: in vivo; details: 0.5 mg/kg IV
Protocol: as §1

[1] = rat IV plasma:brain level (PBL) PK; type: in vivo
[2] = plasma protein binding, equilibrium dialysis; type: in vitro ADME, rat; details: fraction unbound
Protocol: (§2) The protein binding of each compound was determined in plasma via equilibrium dialysis employing RED Plates (ThermoFisher Scientific, Rochester, NY). Plasma was added to the 96 well plate containing test compound and mixed thoroughly for a final concentration of 5 μM. Subsequently, an aliquot of the plasma-compound mixture was transferred to the cis chamber (red) of the RED plate, with an phosphate buffer (25 mM, pH 7.4) in the trans chamber. The RED plate was sealed and incubated for 4 h at 37 °C with shaking. At completion, aliquots from each chamber were diluted 1:1 with either plasma (cis) or buffer (trans) and transferred to a new 96 well plate, at which time ice-cold acetonitrile containing internal standard (50 ng/mL carbamazepine) (2 volumes) was added to extract the matrices. The plate was centrifuged (3000 rcf, 10 min) and supernatants transferred and diluted 1:1 (supernatant: water) into a new 96 well plate, which was then sealed in preparation for LC/MS/MS analysis. Each compound was assayed in triplicate within the same 96-well plate. Fraction unbound was determined using the following equation [drawing 1]

brain homogenate binding = type: in vitro ADME, rat; details: fraction unbound
[3] = intrinsic clearance, predicted hepatic clearance; type: in vitro ADME, rat; details: in vitro predicted hepatic clearance
Protocol: (§3) Human or rat hepatic microsomes (0.5 mg/mL) and 1 μM test compound were incubated in 100 mM potassium phosphate pH 7.4 buffer with 3 mM MgCl2 at 37 °C with constant shaking. After a 5 min preincubation, the reaction was initiated by addition of NADPH (1 mM). At selected time intervals (0, 3, 7, 15, 25, and 45 min), aliquots were taken and subsequently placed into a 96-well plate containing cold acetonitrile with internal standard (50 ng/mL carbamazepine). Plates were then centrifuged at 3000 rcf (4 °C) for 10 min, and the supernatant was transferred to a separate 96-well plate and diluted 1:1 with water for LC/MS/MS analysis. The in vitro half-life (T1/2, min, eq 1), intrinsic clearance (CLint, mL/min/kg, eq 2) and subsequent predicted hepatic clearance (CLhep, mL/min/kg, eq 3) was determined employing the following equations: [drawing 2] 1 where k represents the slope from linear regression analysis of the natural log percent remaining of test compound as a function of incubation time [drawing 3] 2
(§4) ^ascale-up factors: of 20 (human) or 45 (rat) [drawing 4] 3 where Qh (hepatic blood flow, mL/min/kg) is 21 (human) or 70 (rat).

[4] = intrinsic clearance, predicted hepatic clearance; type: in vitro ADME, human; details: in vitro predicted hepatic clearance
Protocol: as §3, §4

human mGlu1 = target: T1, human mGlu1 (Homo sapiens, UniProt Q13255); assay: mGlu1 calcium mobilization (triple-add) PAM assay; type: cell-based; details: PAM, calcium flux, EC20 glutamate
T1 construct: expressed in transfected cells; pcDNA5/TO)
T1 sequence (Q13255 19-1194): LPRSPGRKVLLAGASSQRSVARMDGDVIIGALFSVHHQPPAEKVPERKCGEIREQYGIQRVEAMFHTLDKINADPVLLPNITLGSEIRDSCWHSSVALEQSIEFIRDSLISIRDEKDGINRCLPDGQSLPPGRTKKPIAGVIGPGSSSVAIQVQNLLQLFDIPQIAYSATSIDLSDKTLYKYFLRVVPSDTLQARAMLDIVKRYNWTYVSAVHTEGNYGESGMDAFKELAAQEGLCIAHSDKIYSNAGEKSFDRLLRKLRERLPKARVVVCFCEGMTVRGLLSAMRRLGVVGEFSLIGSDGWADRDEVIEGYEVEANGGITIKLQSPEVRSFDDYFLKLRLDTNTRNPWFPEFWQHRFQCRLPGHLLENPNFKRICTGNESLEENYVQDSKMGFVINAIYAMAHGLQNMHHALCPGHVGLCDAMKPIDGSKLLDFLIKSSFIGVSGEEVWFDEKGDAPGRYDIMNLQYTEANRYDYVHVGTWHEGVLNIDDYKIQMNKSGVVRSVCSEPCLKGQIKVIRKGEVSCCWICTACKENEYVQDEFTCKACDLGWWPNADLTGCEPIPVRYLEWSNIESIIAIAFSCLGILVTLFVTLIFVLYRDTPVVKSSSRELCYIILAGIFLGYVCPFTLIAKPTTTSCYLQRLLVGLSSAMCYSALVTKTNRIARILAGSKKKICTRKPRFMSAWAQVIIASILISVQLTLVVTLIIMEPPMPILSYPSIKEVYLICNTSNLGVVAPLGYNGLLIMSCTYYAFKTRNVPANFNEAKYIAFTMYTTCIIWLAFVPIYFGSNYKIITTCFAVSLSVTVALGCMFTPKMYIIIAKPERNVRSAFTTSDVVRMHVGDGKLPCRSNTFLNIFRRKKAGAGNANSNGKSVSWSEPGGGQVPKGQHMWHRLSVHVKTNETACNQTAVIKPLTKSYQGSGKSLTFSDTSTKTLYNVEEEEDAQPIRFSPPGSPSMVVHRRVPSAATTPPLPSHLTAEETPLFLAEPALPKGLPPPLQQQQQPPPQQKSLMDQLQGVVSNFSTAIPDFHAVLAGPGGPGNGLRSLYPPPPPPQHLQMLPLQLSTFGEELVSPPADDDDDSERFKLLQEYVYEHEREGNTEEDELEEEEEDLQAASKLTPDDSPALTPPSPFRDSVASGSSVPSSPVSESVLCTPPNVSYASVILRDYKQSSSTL
Protocol: Tetracycline-inducible human mGlu1 WT-T-REx-293 cells (Wu et al, Science 2014) were cultured at 37 °C in Dulbecco’s Modified Eagle Medium (DMEM) growth medium containing 10% Tet-tested FBS, 2 mM L-glutamine, 20 mM HEPES, 0.1 mM nonessential amino acids, 1 mM sodium pyruvate, antibiotic/antimycotic, 100 μg/mL hygromycin and 5 μg/mL blasticidin in the presence of 5% CO2. […] The mutant stable cell lines were generated in the same manner as the WT as previously described and cultured in the growth medium described above.
To determine the potency of mGlu1 PAMs in calcium assays, Ca flux was measured as previously described in ACS Chem. Bio. 2014, 9, 2334–2346. Briefly, the day before the assay, human mGlu1 WT-T-REx-293 cells were plated in black-walled, clear-bottomed, poly-D-lysine coated 96-well plates at 80,000 cells/100 μL assay medium (DMEM supplemented with 10% dialyzed FBS, 20 mM HEPES, and 1 mM sodium pyruvate) containing 50 ng/mL of tetracycline to induce mGlu1 expression. The next day, media was removed and the cells were incubated with 50 μL of 1.15 μM Fluo-4 AM dye solution prepared in assay buffer (buffer (Hank’s balanced salt solution, 20 mM HEPES, and 2.5 mM probenecid) for 45 min at 37 °C, the dye was removed and replaced with 45 μL of assay buffer. Then, calcium flux was measured using Flexstation II (Molecular Devices, Sunnyvale, CA). Compounds serially diluted at half log concentrations in DMSO were further diluted in assay buffer. The compounds or DMSO vehicle were added to cells and incubated for 2.5 min and an EC20 concentration of glutamate was added and incubated for 1 min. An ECmax concentration of glutamate was also added to cells that were incubated with DMSO vehicle to accurately calculate the EC20 calcium response. Data were normalized by subtracting the basal florescent peak before EC20 agonist addition from the maximal peak elicited by EC20 agonist and PAMs. Using GraphPad Prism 5.0, the concentration response curves were generated and the potencies of the mGlu1 PAMs were determined.

rat mGlu1 = rat mGlu1 (Rattus norvegicus, UniProt P23385); assay: mGlu1 calcium mobilization PAM assay; type: cell-based; details: PAM, calcium flux
rat mGlu1, sequence (P23385 19-1199): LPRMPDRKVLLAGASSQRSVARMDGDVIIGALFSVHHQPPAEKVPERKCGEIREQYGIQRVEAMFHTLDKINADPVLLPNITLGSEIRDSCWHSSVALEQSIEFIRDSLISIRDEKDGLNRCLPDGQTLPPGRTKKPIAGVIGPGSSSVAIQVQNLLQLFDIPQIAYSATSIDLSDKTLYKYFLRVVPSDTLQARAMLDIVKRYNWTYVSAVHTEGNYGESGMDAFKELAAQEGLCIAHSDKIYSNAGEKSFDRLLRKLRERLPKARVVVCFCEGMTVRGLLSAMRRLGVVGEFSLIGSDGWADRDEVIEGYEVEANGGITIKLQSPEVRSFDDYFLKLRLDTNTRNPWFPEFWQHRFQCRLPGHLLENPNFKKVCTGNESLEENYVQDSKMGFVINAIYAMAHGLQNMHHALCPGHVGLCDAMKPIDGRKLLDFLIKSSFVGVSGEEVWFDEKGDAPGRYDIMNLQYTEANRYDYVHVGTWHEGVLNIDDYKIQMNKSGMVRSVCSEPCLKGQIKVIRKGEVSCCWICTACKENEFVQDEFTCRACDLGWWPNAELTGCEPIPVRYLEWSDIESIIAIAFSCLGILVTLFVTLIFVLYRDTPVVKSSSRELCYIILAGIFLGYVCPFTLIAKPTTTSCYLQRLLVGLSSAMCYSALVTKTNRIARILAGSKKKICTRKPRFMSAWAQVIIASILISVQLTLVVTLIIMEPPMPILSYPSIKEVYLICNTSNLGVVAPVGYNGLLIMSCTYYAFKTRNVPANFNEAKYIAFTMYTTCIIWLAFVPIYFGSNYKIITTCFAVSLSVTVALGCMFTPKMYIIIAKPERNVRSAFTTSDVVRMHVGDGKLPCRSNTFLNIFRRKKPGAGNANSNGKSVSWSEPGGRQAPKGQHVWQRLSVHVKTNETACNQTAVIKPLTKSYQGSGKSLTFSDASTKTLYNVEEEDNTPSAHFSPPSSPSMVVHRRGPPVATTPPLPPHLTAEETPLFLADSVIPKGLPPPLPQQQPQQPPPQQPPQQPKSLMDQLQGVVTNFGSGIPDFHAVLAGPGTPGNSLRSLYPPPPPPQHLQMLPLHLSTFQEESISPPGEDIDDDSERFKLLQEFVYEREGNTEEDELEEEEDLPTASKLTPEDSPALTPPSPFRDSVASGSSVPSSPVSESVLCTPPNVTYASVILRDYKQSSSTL

[5] = plasma protein binding, equilibrium dialysis; type: in vitro ADME, human; details: fraction unbound
Protocol: as §2

**Q.** With `O=C(Nc1ccc(N2C(=O)c3cccc(Cl)c3C2=O)c(Cl)c1)c1ncccc1Cl` [Compound 2] as the molecule, how does the EC50 (hmGlu1) read?
**A.** 390 nM

**Q.** And the “selectivity vs. mGlu4” value (mGlu4)?
**A.** ~ 30 fold

**Q.** What does the source list for `Cc1ccoc1C(=O)Nc1ccc(N2C(=O)c3cccc(F)c3C2=O)c(Cl)c1` [Compound 3]?
**A.** EC50 (hmGlu1): 32 nM; selectivity vs. mGlu4 (mGlu4): ~ 35 fold

**Q.** For `O=C(CCCN1CCC(O)(c2ccc(Cl)cc2)CC1)c1ccc(F)cc1` [haloperidol, reference compound], which catalepsy (Sprague–Dawley rats) is on record?
**A.** induced profound catalepsy

**Q.** With `Cc1ccoc1C(=O)Nc1ccc(N2Cc3c(Cl)cccc3C2=O)c(Cl)c1` [Compound 5] as the molecule, how does the EC50 (hmGlu1) read?
**A.** 211 nM

**Q.** And the “selectivity vs. mGlu4” value (mGlu4)?
**A.** ~ 50 fold

**Q.** What does the source list for `Cc1ccc2c(c1)C(=O)N(c1ccc(NC(=O)c3occc3C)c(F)c1)C2=O` [Compound 4, reference compound]?
**A.** EC50 (dog mGlu1): 400 nM; half-life (IV dog PK): 16.8 h; clearance (IV dog PK; read-out: CLp): 14 mL/min/kg; Vd (IV dog PK; read-out: Vss): 12 L/kg; C0 (IV dog PK; read-out: C0 exposure, total): 1100 nM; C0 (IV dog PK; read-out: C0 exposure, unbound): 36.4 nM; adverse events (AEs) in dog (male beagles): no AEs; selectivity vs. mGlu4 (mGlu4): ~ 790 fold

**Q.** For `O=C(NCc1cnn2ccccc12)c1cc(-c2ccco2)ccc1Cl` [Compound 9k, 2-Chloro-5-(furan-2-yl)-N-(pyrazolo[1,5-a]pyridin-3-ylmethyl)benzamide], which Kp at 15 min ([1]; Sprague-Dawley, 0.25 mg/kg/compound, rat IV PBL, brain:plasma) is on record?
**A.** 0.27

**Q.** And the clearance ([1]; Sprague-Dawley, plasma, intravenous, rat PK PBL experiment, read-out: CLp)?
**A.** 67.2 mL/min/kg

**Q.** And the MRT ([1]; rat PK PBL experiment)?
**A.** 0.355 h

**Q.** What about the t1/2 ([1]; rat PK PBL experiment) of the same molecule?
**A.** 0.397 h

**Q.** And the rat fuplasma [2]?
**A.** 0.022

**Q.** What about the rat fubrain (brain homogenate binding) of the same molecule?
**A.** 0.021

**Q.** What about the “CLhep, rat” value [3] of the same molecule?
**A.** 63.7 mL/min/kg

**Q.** And the “CLhep, human” value [4]?
**A.** 19.8 mL/min/kg

**Q.** And the EC50 (human mGlu1)?
**A.** 51 nM

**Q.** And the “human mGlu1 Glumax” value (human mGlu1)?
**A.** 53%

**Q.** And the EC50 (rat mGlu1)?
**A.** 109 nM

**Q.** And the “rat mGlu1 Glumax” value (rat mGlu1)?
**A.** 92%

**Q.** What about the human fuplasma [5] of the same molecule?
**A.** 0.036

Source: publication PMC11684029, “Discovery of VU6024578/BI02982816: An mGlu1 Positive Allosteric Modulator with Efficacy in Preclinical Antipsychotic and Cognition Models” (Journal of Medicinal Chemistry, 2024)
